“Also recorded” adds a separate entry of the source.
Columns and labels:
[1] = Absorption maxima and absorption coefficients of photosensitizers; type: physicochemical
Text: The photosensitizers were used as received with the exception of N-HPT which was recrystallized twice from aqueous ethanol before use.

[2] = test system: rabbit corneas; assay: In vivo PTB of 6-mm penetrating keratoplasty incisions anchored by sutures, bursting pressure; settings: 1% Rose Bengal, 191 J/cm2, 6-mm PK incision with 4-16 sutures
Protocol: PTB was performed in vivo in New Zealand rabbits to repair two types of corneal wounds.
In Group II, 6-mm Penetrating Keratoplasy (PK) incisions anchored by 4-16 sutures were performed in 16 rabbit corneas. Half of the corneas in each group underwent PTB where 1% Rose Bengal dye was applied to the wound edges followed by laser irradiation at fluence of 191 J/cm2. Photoactivation was performed with a 514 nm Argon Laser and a 532-nm CW Nd: YAG laser. Wound leak and incisional bursting pressure were determined in vivo in the immediate postoperative period.

[3] = test system: bovine achilles tendons; assay: PTB of ruptured bovine achilles tendons in vitro, ultimate stress and stiffness; settings: for Mean change in stiffness % (95% CI) / Mean change in ultimate stress % (95% CI): relative to healthy tendon
Protocol: To test the ability of PTB to quickly and effectively bond ruptured tendons, an in vitro model utilizing bovine tendons was developed. The use of bovine models in wound healing is well known by those skilled in the art. The similarities between bovine wound healing and that of humans enables one to extrapolate the therapeutic results obtained in a bovine model system to a therapeutic result in humans.
Fresh bovine achilles tendons were obtained and stored at […] until use. The tendon was cut into dumbbell-shaped 5 cm strips with the central 3 cm strip at an approximate cross-sectional area of 1 mm by 1 mm, and were irrigated constantly with phosphate buffered saline (PBS) to prevent desiccation.
Rupture of the tendon was induced by weakening the central 1 cm of the tendon with a surgical blade and mechanically pulling it apart. A solution of Rose Bengal at various concentrations (0.1, 0.5 and 1.0% weight per volume in PBS) was applied to the ends of the ruptured tendons for two minutes, after which the ruptured ends were approximated and the excess dye was removed.
The ruptured ends of the tendon were crossed over each other with an overlap of approximately 1 cm before being wrapped by several layers of tissue paper. The tissue wrapped tendon was rolled and pressed in order to approximate the ruptured ends and remove the excess dye. The tissue paper was carefully removed before the tendon was placed between two glass slides that were then clipped together.
The center of the approximated tendon was irradiated with an argon laser (514 nm), having a spot size of 1 cm in diameter, which was transmitted through an optic fiber. The laser was applied with an irradiance of 0.5, 1.0, or 1.5 W/cm^2, while the fluence of laser energy applied was 125, 250, 500, or 750 J/cm^2. The exposure time ranged from 1 min and 23 seconds to 25 minutes.
Control tendons were ruptured in the same manner, however treatments consisted of application of Rose Bengal and approximation of the tendon ends without laser irradation, approximation of the tendon ends with laser irradiation but no exposure to rose bengal, and approximation of the ends with no further treatment.
To test the effectiveness of the photochemical tissue bonding, immediately after photochemical tissue bonding, the tendon strips were attached to the fixture of a tensiometer, which was coupled to a force transducer (FIG. 17). The tendon was held at a straight and vertical position, and cyclic loading of the tendon was conducted by stretching the tendon for a magnitude of 0.5 mm for 6 cycles. The tendon was brought back to a zero deflection position before being pulled to failure at a constant speed of 100 mm/min. The peak force needed to rupture the tendon was recorded, and a typical force-deflection curve was obtained (FIG. 18). The ultimate stress and stiffness (peak force for tendon rupture normalized by the cross-sectional area, and slope of the linear region of the force-deflection curve, respectively) were calculated from the force-deflection curve.
Healthy tendons were also placed in the tensiometer, and were pulled to the point of failure. Following failure, they were treated with photochemical tissue bonding at 500 J/cm^2 fluence and again pulled to failure to study the percentage of recovery of mechanical properties. Immediately after the photochemical tissue bonding, the ultimate stress and the stiffness returned to approximately 59.66% and 52.75% of the healthy tendon, respectively (Table 1).

[4] = test system: bovine tendon / NeuraGen collagen conduit interface; assay: Tensile strength of PTB bond between NeuraGen conduit and bovine tendon; settings: RB dye, 532 nm, fluence of 150-300 Joules, 0.25 cm^2 interface
Protocol: Additional experiments were also performed to determine the effectiveness of PTB bonding between the NeuraGen™ conduits and an animal tissue, namely bovine tendon tissue. To do this, the tensile strength of a PTB bond formed between the bovine tendon and a segment of Neuregen™ conduit was tested, using various different photoactive dyes. Both the tendon surface and the inner surface of a piece of conduit were coated with RB dye and allowed to sit in the dark for 60 seconds. The two surfaces were then thoroughly dried and pressed together to form a tendon/conduit interface of approximately 0.25 cm^2. The construct was irradiated at 532 nm through the conduit toward the tendon/conduit interface at various fluence levels (Joules). Constructs were then pulled into tension using a tensiometer until the bond between the tendon and the conduit broke. The breaking force was measured in Newtons.

[5] = test system: pig vein and arteries; assay: Ex vivo porcine blood vessel anastomosis by PTB (cuff approach), tensile strength; settings: 0.1% v/v in saline, 532 nm, 0.5 W/cm2 for 2.5 minutes
Text: In adhering segments of vascular tissue according to methods of the invention, two pieces of blood vessel are joined and photochemically bonded together to create an intimate, watertight seal. Two methods were considered to accomplish anastomosis. The “cuff” approach, which entails administration of the photoactive dye to the outer surface of the proximal vessel and the inside surface of the distal stump of the vessel. The distal stump is folded back on itself and the proximal stump brought into contact. The distal cuff is then placed over the proximal vessel to form a cuff. The overlap region in the cuff is then irradiated with visible light to bond the ends of the vessel together. FIG. 30 represents a schematic overview of the cuff approach.
The cuff approach was used with pig vein and arteries ex vivo. The vessels were sharply transected using a scalpel. Rose bengal at a concentration of 0.1% v/v in saline was applied to the outside surface of the proximal stump of the vessel and the inside surface of the distal vessel. The vessels were then mounted over a cylindrical glass rod that acts as support for the hollow vessels. A distal cuff was formed by folding the end of the distal end back on itself, as described above and in FIG. 30. […]

[6] = argon laser 514 nm and Rose Bengal
[7] = higher Rose Bengal concentrations (0.0, 0.1, 0.5, 1.0% w/v in PBS)

O=C([O-])c1c(Cl)c(Cl)c(Cl)c(Cl)c1-c1c2cc(I)c(=O)c(I)c-2oc2c(I)c([O-])c(I)cc12.[Na+].[Na+] [Rose Bengal]
absorption maximum [1]: 550 nm | absorption coefficient at the laser wavelength used ([1]; RB at 514 nm, Fl at 488 nm, MB at 661 nm, R-5-P at 488 nm, N-HPT at 351 nm): 33000 dm^3 mol^−1 cm^−1 | immediate bursting pressure [2]: 410±70 mm Hg | dehydration of the tendon ([3]; 1.0% Rose Bengal): dehydration of the tendon was noticed | Mean change in stiffness % (95% CI) ([3]; Dye control (dye, no laser)): 20.65 (10.16, 31.14) % | Mean change in ultimate stress % (95% CI) ([3]; Dye control (dye, no laser)): 24.18 (6.57, 41.79) % | Mean change in stiffness % (95% CI) ([3]; Laser + Dye, 500 J/cm^2): 52.75 (24.05, 81.45) % | Mean change in ultimate stress % (95% CI) ([3]; Laser + Dye, 500 J/cm^2): 59.66 (8.71, 110.61) % | stiffness of ruptured tendon vs controls [3, 6]: significantly increased; also recorded: significant increase | ultimate stress of ruptured tendon vs controls [3, 6]: significantly increased; also recorded: significant increase | stiffness of ruptured tendon [3, 7]: significant increase | ultimate stress of ruptured tendon [3, 7]: significant increase | bond between tendon and conduit (breaking force) [4]: effective bond was formed | stretch of anastomosed vessels before rupture [5]: 3-4 times their normal length
